Experimental data: US12582720B2, “Compound for preventing or treating lipid metabolism-related diseases” (Fudan University, priority 2020, dated 2026)
“Also recorded” adds a separate entry of the source.

How the values were obtained:
[1] = system: lipid droplets in LC3B knockout HEK293T cells; assay: Lipid droplets in LC3B knockout HEK293T cells; type: cell-based, human; details: 5 μM
Procedure: The effect of conjugated compounds (Compound 1A, Compound 2A, Compound 3A or Compound 4A at a concentration of 5 μM) on lipid droplets in LC3B knockout HEK293T cells was tested by a method similar to Example 2.

[2] = system: autophagosome-lipid droplet colocalization in MEF cells; assay: Colocalization of autophagosome and lipid droplets in mCherry-LC3B transfected MEF cells; type: cell-based, mouse; details: 5 μM, 3 h, compared to DMSO control
Procedure: (1) In MEF cells, mCherry-LC3B was expressed by cDNA plasmid transfection.
(2) OA was added to the culture medium 30 hours after transfection to induce lipid droplets.
(3) Compounds were added to treat cells 6 hours after induction.
(4) 3 hours after compounds addition, cells were fixed and BODIPY stained.
(5) The coverslips laid in the multi-well plates were removed, and imaged with the Zeiss 880 confocal microscope after mounted to observe the aggregation of LC3 puncta around the lipid droplets.
In MEF cells, mCherry-LC3B was expressed by cDNA plasmid transfection. At 30th hour of overexpression, OA was added into cells for lipid droplet induction. 6 hours later, the compound was added for 3 hours' treatment, and then cells were subjected to immunostaining. […] Lipid droplets (green) were stained with BODIPY stain, and nucleus were indicated with DAPI stain. […] In FIG. 24, the colocalized autophagosome-lipid droplet was marked with circles.

LC3B = LC3B (Homo sapiens, UniProt Q9GZQ8); assay: MST detection of affinity activity with LC3B; type: binding; design: His8 (with TEV site) (N); made in house; host or cells: Escherichia coli BL21(DE3)pLysS; details: MST; read-out: Kd (μM), equilibrium dissociation constant between the conjugated compound and LC3B
Procedure: The recombinant GST-LC3B proteins were prepared and purified, dialyzed into 1×PBS, and then labelled with the red fluorophore with the protein labeling kit RED-NHS (Nanotemper, cat. no. L001).
The MST experiments were performed using the Monolith NT.115 instrument (NanoTemper Technologies). The reaction buffer contains 20 mM HEPES, pH 7.4, 150 mM NaCl, and the protein concentration was 500 nM. The MST data were collected under 40% infrared laser power and 20% light-emitting diode power. The data were analyzed by Nanotemper software.

[3] = system: lipid droplets in SH-SY5Y cells; assay: Reduction of OA-induced lipid droplets in SH-SY5Y cells; type: cell-based, human; details: for amount of lipid droplet: 1.58 μM-50 μM; for amount of lipid droplet / size of lipid droplet: 24 h; for size of lipid droplet: 5 μM-50 μM; for lipid droplet levels: concentrations as indicated in FIG. 18, 24 h
Source text: The reduction of lipid droplets in SH-SY5Y cells by Compound 1A and Compound 2A was detected by a method that was similar to Example 2, and the result was shown in FIG. 18.
The effects of unconjugated LC3 binding Compound A1, A5 and unconjugated lipid droplet probe ORBB […] respectively on lipid droplets in SH-SY5Y cells (FIG. 20A) and MEF cells (FIG. 20B) were detected by a method similar to Example 2.

[4] = system: lipid droplets in wild type MEF cells; assay: Reduction of OA-induced lipid droplets in wild type MEF cells (BODIPY 493/503 staining); type: cell-based, mouse; details: wild type MEF, 24 h; for lipid droplets: 1.5 μM or 5 μM; for amount of lipid droplets / size of lipid droplets: OA-induced
Procedure: (5) OA-BSA stock solution was prepared into OA-BSA working solution (50× final concentration, 200 μM), and 40 μl of OA-BSA working solution was added to each well to induce lipid droplets. For the non-OA induction group, 40 μl of 10% BSA solution was added to the control well, and the amount of BSA was the same as that of the experimental group.
Compounds were formulated into DMSO stock solutions. Stock compounds were diluted with DMSO into the indicated concentrations of working solutions prior to use in the treatment of cells. After induction of the lipid droplets with OA for the indicated time, the test compounds were added to the cells respectively. Control wells were replaced with the equal volume of DMSO. Unless otherwise stated, the compounds were diluted into 10× solutions using the culture medium and added to the culture medium for 24 hours of incubation. Cells were treated with compounds in a 37° C. incubator with 5% CO2.
(3) The original medium in the multi-well plates was removed, washed and the cells was fixed, 1 ml of the BODIPY solution prepared in (1) was added to each well, and stained for 15 minutes. The staining solution was aspirated and washed with 1×PBS.
(5) The coverslips laid in the multi-well plates were removed, and imaged with the Zeiss 880 confocal microscope after mounted, and analyzed the size and number of lipid droplets with ImageJ.
Wild type MEF cells were cultured in a DMEM culture medium containing 10% FBS. Cells were plated according to the method as described above (12 well plate was plated with aseptic treated slides). When cells grew to a confluence of 60-70%, lipid droplets were induced with OA for 30 h according to the method as described above.
At the time point of 6th hour after initiation of induction, the cells were treated (treated for 24 hours) with Compound 1A or Compound 2A (compound concentrations were 50 μM, 15.8 μM, 5 μM, 1.58 μM, 0.5 μM, 0.158 μM) according to the method as described above.

[5] = system: lipid droplets in autophagy-deficient MEF cells (Atg5−/−); assay: Lipid droplets in autophagy-deficient MEF cells (Atg5-/-); type: cell-based, mouse; details: 5 μM, 24 h
Procedure: Wild type MEF cells and autophagy-deficient MEF cells (Atg5−/−) were cultured in a DMEM culture medium containing 10% FBS. Cells were plated according to the method as described above (12 well plate was plated with aseptic treated slides). When cells grew to a confluence of 60-70%, lipid droplets were induced with OA for 30 h according to the method as described above. At the time point of 6th hour after initiation of induction, OA induced lipid droplets for 30 h, and the cells were treated (treated for 24 hours) with Compound 1A or Compound 2A according to the method as described above. […] The control wells were replaced with DMSO (treated with DMSO). […] After 26 hours of OA induction for lipid droplets, the culture medium of DMSO treated cells was replaced with EBSS, and starved for 4 hours to induce autophagy, and a slight reduction on lipid droplets was observed relative to cells without starvation treatment. Therefore, lipid droplets can be degraded via cell autophagy. The compound of present disclosure could promote the degradation of lipid droplets via cell autophagy.

[6] = system: lipid droplets in human normal liver cell line QSG7701; assay: Endogenous lipid droplets in human normal liver cell line QSG7701; type: cell-based; details: QSG7701, no induction, 5 μM, 24 h
Procedure: 10% FBS+90% RPMI 1640 culture medium was used for cultivation, cell incubator culture condition of 37° C. and 5% CO2 was used. Cells were plated as 50 thousands/well (12 well plate was plated with aseptic treated slides). When cells grew to a confluence of 80-90%, the compound (Compound 1A or Compound 2A, at a concentration of 5 μM) was added for treatment, and LC3 binding Compound A1, A5, lipid droplet probe Sudan IV as well as DMSO acted as a control. […]. In the compounds of present disclosure, LC3 binding moiety was covalently linked with lipid droplet binding moiety, and thus could achieve the effect of reducing liver cell endogenous lipid droplet.

[7] = system: lipid droplets in 3T3-L1 fat precursor cell differentiated fat cells; assay: Lipid droplets in 3T3-L1 fat precursor cell differentiated fat cells; type: cell-based, mouse; details: 3T3-L1 differentiated fat cells, 24 h; for effect of the compound on lipid droplets under the treatment of NH4Cl: 5 μM + NH4Cl 5 mM; for amount of lipid droplets / size of lipid droplets: 5 μM
[8] = system: lipid droplets in SH-SY5Y cells; assay: Lipid droplets in SH-SY5Y cells in the presence of autophagy inhibitor NH4Cl; type: cell-based, human; details: with NH4Cl 5 mM, 24 h
Procedure: By a method similar to Example 4, but after 6 hours from OA induction of lipid droplets, while the test compound was added into cells, autophagy inhibitor ammonium chloride (NH4Cl, final concentration of 5 mM) was added simultaneously. After continuous treatment for 24 hours, the lipid droplets were stained. […] Therefore, the compound of present disclosure reduced lipid droplets by targeting autophagy of cells.

wild type MEF cells = assay: Integrity of nuclear membrane, cell membrane and mitochondria in MEF cells; type: cell-based, mouse; details: 5 μM, 24 h
Procedure: Cells were blocked in 4% BSA+0.1% Triton X-100 in 1×PBS for 30 min and incubated overnight at 4° C. with primary antibody goat polyclonal Lamin B1 (1:200, Santa Cruz Biotechnology, cat. no. sc-6216, RRID: AB_648156), washed with blocking buffer, and incubated with secondary antibody (1:500, Alexa Flour488 donkey anti-goat, Jackson immunoResearch Lab, cat.no. 705-547-003, RRID: AB_2340431) at room temperature for 1 hour. The samples were washed three times and stained with DAPI for 10 min at room temperature.
MitoTracker staining and CellMask staining were performed the same as LysoTracker staining, except using MitoTracker™ Green FM (500 nM, Thermo Fisher, cat. no. M7514) staining for 3 hours to detect total mitochondria; MitoTracker™ Red CMXRos. (500 nM, Thermo Fisher, cat. no. M7512) staining for 3 hours to detect healthy mitochondria; and CellMask™ (2000×, CellMask™ Plasma Membrane Stains, Thermo Fisher, cat. no. C10046) staining for 5 minutes at 37° C.
Wild type MEF cells were treated with conjugated compound (Compound 1A, Compound 2A, Compound 3A or Compound 4A at a concentration of 5 μM) according to a method similar to Example 2. […]

[9] = system: lipid droplets in wild type MEF cells; assay: Reduction of OA-induced lipid droplets in wild type MEF cells (BODIPY 493/503 staining); type: cell-based, mouse

Compound | reduction of lipid droplets induced by conjugated compounds after knockout of LC3B gene [1] | ratio of colocalization of red and green aggregation point (autophagosome-lipid droplet) [2] | Kd (LC3B) | amount of lipid droplet [3] | size of lipid droplet [3] | lipid droplet levels [3] | lipid droplets [4] | amount of lipid droplets ([4]; 0.5 μM-50 μM) | size of lipid droplets ([4]; 5 μM-50 μM) | lipid droplets [5] | endogenous lipid droplets (amount) [6] | effect of the compound on lipid droplets under the treatment of NH4Cl [7] | amount of lipid droplets [7] | size of lipid droplets [7] | lipid droplets [8] | amount of lipid droplets ([4]; 1.58 μM-50 μM) | size of lipid droplets ([4]; 1.58 μM-50 μM) | integrity of nuclear membrane, cell membrane, mitochondrion membrane (wild type MEF cells) | lipid droplets ([9]; DMSO treated cells, 5 mM NH4Cl, 24 h, relative to cells not treated with NH4Cl) | amount or size of lipid droplets ([9]; wild type MEF, autophagy blocker NH4Cl)
3-(3,5-dibromo-4-hydroxylbenzylidene)-5-iodo-1-(10-((1-((E)-(4-((E)-phenyldiazenyl)phenyl)diazenyl)naphthalen-2-yl)oxy)decyl)indol-2-one [Compound 1A] | largely blocked | significantly increased | 3.56 µM | significantly reduce | significantly reduce | significantly reduces | significantly reduced | significantly reduced | significantly reduced | does not change; also recorded: ineffective | significantly reduce; also recorded: could reduce | blocked | could reduce | could change | does not change; also recorded: did not reduce |  |  |  |  | 
Cc1ccccc1/N=N/c1ccc(/N=N/c2c(OCCCCCCCCCCOc3cc(O)cc4oc(=O)cc(-c5ccccc5)c34)ccc3ccccc23)c(C)c1 [Compound 2A, 7-hydroxy-5-((10-((1-((E)-(2-methyl-4-((E)-o-methylphenyldiazenyl)phenyl)diazenyl)naphthalen-2-yl)oxy)decyl)oxy)-4-phenyl-2H-chromen-2-one] | largely blocked | significantly increased | 5.37 µM | significantly reduce | significantly reduce | significantly reduces | significantly reduced |  |  | does not change; also recorded: ineffective | significantly reduce; also recorded: could reduce | blocked | could reduce | could change | does not change; also recorded: did not reduce | significantly reduced | significantly reduced |  |  | 
Cc1ccccc1/N=N/c1ccc(/N=N/c2c(OCCCCCCCCCCOc3cc(O)c4c(-c5ccccc5)cc(=O)oc4c3)ccc3ccccc23)c(C)c1 [Compound 2] |  |  |  |  |  |  |  |  |  |  |  |  |  |  |  |  |  | Did not Affect |  | 
Cl.N [NH4Cl, ammonium chloride] |  |  |  |  |  |  |  |  |  |  |  |  |  |  |  |  |  |  | slight increase | slightly increased
